Reference: US10168342B2, “Lipid probes and uses thereof” (THE SCRIPPS RESEARCH INSTITUTE, priority 2015, dated 2019)

Legend:
Test in all cases: In situ competitive SILAC profiling with A-DA probe in (PMA-stimulated) A549 cells
Details in all cases: A549 cells, A-DA probe
[1] = target: T1, A-DA lipid probe targets in A549 cells (Homo sapiens, UniProt O15173)
T1 sequence (O15173 1-223): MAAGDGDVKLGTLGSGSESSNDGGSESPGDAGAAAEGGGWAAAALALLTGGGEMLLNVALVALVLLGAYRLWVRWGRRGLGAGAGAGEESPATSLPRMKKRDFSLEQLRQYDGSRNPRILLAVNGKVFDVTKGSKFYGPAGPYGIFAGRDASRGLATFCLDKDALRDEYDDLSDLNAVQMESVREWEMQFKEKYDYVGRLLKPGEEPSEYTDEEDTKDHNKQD

[2] = target: T2, A-DA lipid probe targets in A549 cells (Homo sapiens, UniProt Q9NS69)
T2 sequence (Q9NS69 1-142): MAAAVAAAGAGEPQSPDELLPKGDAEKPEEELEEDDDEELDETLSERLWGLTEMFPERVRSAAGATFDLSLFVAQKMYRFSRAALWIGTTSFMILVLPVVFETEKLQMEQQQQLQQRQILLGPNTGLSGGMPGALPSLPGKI

[3] = target: T3, A-DA lipid probe targets in A549 cells (Homo sapiens, UniProt Q8NF37)
T3 sequence (Q8NF37 1-534): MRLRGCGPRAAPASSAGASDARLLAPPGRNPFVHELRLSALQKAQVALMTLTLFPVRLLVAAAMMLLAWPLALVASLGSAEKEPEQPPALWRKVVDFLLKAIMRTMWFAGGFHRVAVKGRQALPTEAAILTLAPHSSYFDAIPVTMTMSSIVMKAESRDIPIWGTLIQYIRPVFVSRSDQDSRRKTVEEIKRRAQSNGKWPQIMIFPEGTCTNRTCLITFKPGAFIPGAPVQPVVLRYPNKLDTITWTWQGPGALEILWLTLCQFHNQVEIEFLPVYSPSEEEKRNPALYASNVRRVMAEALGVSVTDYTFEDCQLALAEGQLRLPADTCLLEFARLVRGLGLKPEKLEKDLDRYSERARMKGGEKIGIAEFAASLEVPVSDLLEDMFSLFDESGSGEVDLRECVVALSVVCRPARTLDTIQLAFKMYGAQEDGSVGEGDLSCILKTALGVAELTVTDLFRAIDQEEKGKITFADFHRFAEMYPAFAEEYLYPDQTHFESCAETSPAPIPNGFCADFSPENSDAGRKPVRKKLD

[4] = target: T4, A-DA lipid probe targets in A549 cells (Homo sapiens, UniProt P50402)
T4 sequence (P50402 1-254): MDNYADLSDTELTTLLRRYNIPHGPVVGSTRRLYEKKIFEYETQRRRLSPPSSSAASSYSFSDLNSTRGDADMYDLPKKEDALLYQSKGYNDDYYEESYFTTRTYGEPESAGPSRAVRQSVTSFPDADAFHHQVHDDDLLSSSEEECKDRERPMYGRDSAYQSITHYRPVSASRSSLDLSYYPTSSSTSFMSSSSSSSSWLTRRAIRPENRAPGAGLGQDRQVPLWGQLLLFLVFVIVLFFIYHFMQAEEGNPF

[5] = target: T5, A-DA lipid probe targets in A549 cells (Homo sapiens, UniProt Q9BTX1)
T5 sequence (Q9BTX1 1-674): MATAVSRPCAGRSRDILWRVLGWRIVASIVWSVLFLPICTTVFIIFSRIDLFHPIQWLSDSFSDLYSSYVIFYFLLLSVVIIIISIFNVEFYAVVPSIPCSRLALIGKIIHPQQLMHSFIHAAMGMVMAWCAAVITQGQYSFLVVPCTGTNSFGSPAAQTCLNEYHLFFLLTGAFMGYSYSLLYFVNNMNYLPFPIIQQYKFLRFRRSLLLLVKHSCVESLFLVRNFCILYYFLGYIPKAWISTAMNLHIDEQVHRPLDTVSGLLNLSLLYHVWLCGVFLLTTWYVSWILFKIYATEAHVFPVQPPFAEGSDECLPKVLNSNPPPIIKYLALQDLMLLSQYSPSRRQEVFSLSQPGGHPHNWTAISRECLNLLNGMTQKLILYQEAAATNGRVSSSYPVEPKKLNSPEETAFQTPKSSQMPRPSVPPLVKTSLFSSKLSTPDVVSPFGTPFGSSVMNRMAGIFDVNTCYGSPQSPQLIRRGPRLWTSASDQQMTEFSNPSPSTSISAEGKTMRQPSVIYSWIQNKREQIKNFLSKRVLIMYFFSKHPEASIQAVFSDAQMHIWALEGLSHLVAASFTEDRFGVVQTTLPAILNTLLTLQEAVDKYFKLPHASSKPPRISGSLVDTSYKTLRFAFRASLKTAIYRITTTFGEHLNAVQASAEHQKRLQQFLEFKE

[6] = target: A-DA lipid probe targets in A549 cells (Homo sapiens, UniProt Q14534)
Chain of A-DA lipid probe targets in A549 cells (Homo sapiens, UniProt Q14534) (Q14534 whole entry): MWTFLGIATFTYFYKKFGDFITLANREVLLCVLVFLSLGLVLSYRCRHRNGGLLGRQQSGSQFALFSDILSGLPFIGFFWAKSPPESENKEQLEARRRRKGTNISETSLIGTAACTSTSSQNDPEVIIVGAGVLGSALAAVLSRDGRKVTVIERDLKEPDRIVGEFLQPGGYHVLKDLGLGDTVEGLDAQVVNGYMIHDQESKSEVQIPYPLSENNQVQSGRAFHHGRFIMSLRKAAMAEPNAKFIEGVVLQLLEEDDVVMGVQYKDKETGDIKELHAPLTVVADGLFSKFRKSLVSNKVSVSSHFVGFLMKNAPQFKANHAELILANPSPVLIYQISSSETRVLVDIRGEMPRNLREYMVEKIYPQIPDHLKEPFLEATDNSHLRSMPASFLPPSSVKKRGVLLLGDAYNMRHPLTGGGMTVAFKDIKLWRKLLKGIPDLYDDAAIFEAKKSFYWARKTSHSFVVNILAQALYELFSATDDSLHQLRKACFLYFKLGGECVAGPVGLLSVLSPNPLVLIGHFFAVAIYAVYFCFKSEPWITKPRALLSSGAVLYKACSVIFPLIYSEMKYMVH

[7] = target: T6, A-DA lipid probe targets in A549 cells (Homo sapiens, UniProt Q15738)
T6 sequence (Q15738 1-373): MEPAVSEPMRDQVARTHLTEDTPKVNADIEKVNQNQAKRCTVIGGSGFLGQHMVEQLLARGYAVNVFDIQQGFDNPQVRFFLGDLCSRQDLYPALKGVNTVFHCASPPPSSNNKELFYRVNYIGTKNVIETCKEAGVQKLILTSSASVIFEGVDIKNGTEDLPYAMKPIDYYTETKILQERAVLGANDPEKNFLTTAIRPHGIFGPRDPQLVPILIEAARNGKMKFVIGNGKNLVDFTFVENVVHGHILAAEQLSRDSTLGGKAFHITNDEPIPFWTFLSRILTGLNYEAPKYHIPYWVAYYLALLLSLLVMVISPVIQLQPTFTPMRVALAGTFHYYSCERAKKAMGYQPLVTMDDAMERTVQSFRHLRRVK

SMILES: O=C(/C=C/c1cccnc1)NCCCCC1CCN(C(=O)c2ccccc2)CC1 [FK-866, reference compound]
- SILAC ratio, PGRMC2 (Q80UU9) ([1]; competitor 25 μM): 1.2
- SILAC ratio, TOMM22 (Q9CPQ3) ([2]; competitor 25 μM): 1.3
- SILAC ratio, LPCAT1 (Q8NF37) ([3]; competitor 25 μM): 1.4
- SILAC ratio, EMD (O08579) ([4]; competitor 25 μM): 1.3
- SILAC ratio, TMEM48 (Q8VCB1) ([5]; competitor 25 μM): 1.2
- SILAC ratio, SQLE (Q14534) ([6]; competitor 25 μM): 1.6
- SILAC ratio, NSDHL (Q15738) ([7]; competitor 25 μM): 1.4

SMILES: C=CCN(C)CCCCCCOc1ccc(C(=O)c2ccc(Br)cc2)c(F)c1 [Ro488071]
- SILAC ratio, PGRMC2 (Q80UU9) ([1]; competitor 5 μM): 1.6
- SILAC ratio, PGRMC2 (Q80UU9) ([1]; competitor 50 μM): 2.1
- SILAC ratio, TOMM22 (Q9CPQ3) ([2]; competitor 5 μM): 1.4
- SILAC ratio, TOMM22 (Q9CPQ3) ([2]; competitor 50 μM): 1.4
- SILAC ratio, LPCAT1 (Q8NF37) ([3]; competitor 5 μM): 1.6
- SILAC ratio, LPCAT1 (Q8NF37) ([3]; competitor 50 μM): 3.1
- SILAC ratio, EMD (O08579) ([4]; competitor 5 μM): 0.6
- SILAC ratio, EMD (O08579) ([4]; competitor 50 μM): 0.8
- SILAC ratio, TMEM48 (Q8VCB1) ([5]; competitor 5 μM): 1.5
- SILAC ratio, TMEM48 (Q8VCB1) ([5]; competitor 50 μM): 2.8
- SILAC ratio, SQLE (Q14534) ([6]; competitor 5 μM): 1.4
- SILAC ratio, SQLE (Q14534) ([6]; competitor 50 μM): 3.3
- SILAC ratio, NSDHL (Q15738) ([7]; competitor 5 μM): 1.5
- SILAC ratio, NSDHL (Q15738) ([7]; competitor 50 μM): 2.5
